# US10501780B2, “Compositions for in situ nucleic acid analysis” (APPLIED BIOSYSTEMS, LLC, priority 2007, dated 2019)
# *: point of attachment. MeOSuc = COC(=O)CCC(=O)*; CH2Cl = ClC*
# Columns and labels:
# proteinase K (PK) = proteinase K (PK) (Parengyodontium album, UniProt P06873); type: biochemical; conditions: PK 600 ug/ml, increasing inhibitor, 3 min; RNaseALERT fluorescence at 520 nm
# Method: PK (600 ug/ml) was mixed with increasing amounts of test inhibitor and allowed to react for 3 min at room temperature. RNase A was added and the mixture was incubated for 10 min. The RNase A was mixed with RNaseALERT™ substrate (AMBION®, Catalog No. AM1964) and incubated for 10 min. The fluorescence of the RNaseALERT™ substrate was measured at 520 nm.
# DNase I [1] = conditions: 1 mM EDTA in Buffer A; 0.2 U DNase I
# Method: The 590 nm fluorescence intensity with 544 nm excitation was measured with time.
# DNase I [2] = tested on: DNase I
# Method: The ability of EGTA to inhibit DNase I activity and the limiting amount of EGTA that could be used in RT-PCR was determined. EGTA (88 mM; final conc. of 8 mM) was added to the stop solution for DNase I inactivation. The pH of the stop solution was 8.0 for AAPV (SEQ ID NO:1) inactivation of proteinase K. Tris-base with HCl as needed for pH adjustment (11 mM; final conc of 1 mM) was used for buffering the solution.
# [3] = Compatibility of protease inhibitors with two-step RT-PCR; type: biochemical
# Excerpt: The samples were reverse transcribed using a Reverse Transcriptase Kit (Applied Biosystems Catalog No. 4368813) and the resulting cDNA was subjected to real time PCR with the TAQMAN® Universal PCR Master Mix (Applied Biosystems Catalog No. 4304437).
# [4] = Compatibility of protease inhibitors with 1-step RT-PCR; conditions: one-step reaction
# HeLa cells = assay: Lysis efficacy of surfactants by propidium iodide staining; type: cell-based, H. sapiens; conditions: PI staining, 10^5 HeLa cells; for effectiveness at lysing cells: concentrations up to 3%
# Method: Lysis efficacies of seven surfactants were tested by PI staining (DNA fluorochrome propidium iodide stain for viability, 1 mg/ml) of 10^5 HeLa cells treated with 0.01% to 5% surfactant. The buffer was 10 mM Tris pH 7.5, 2.5 mM MgCl2, 0.5 mM CaCl2.
# proteinase K = proteinase K (Parengyodontium album, UniProt P06873); assay: AAPV concentration for proteinase K inhibition in lysis solution (RNase A, Bioanalyzer protein chip); type: biochemical; conditions: PK 100 ug/ml
# Sequence of proteinase K (P06873 106-384): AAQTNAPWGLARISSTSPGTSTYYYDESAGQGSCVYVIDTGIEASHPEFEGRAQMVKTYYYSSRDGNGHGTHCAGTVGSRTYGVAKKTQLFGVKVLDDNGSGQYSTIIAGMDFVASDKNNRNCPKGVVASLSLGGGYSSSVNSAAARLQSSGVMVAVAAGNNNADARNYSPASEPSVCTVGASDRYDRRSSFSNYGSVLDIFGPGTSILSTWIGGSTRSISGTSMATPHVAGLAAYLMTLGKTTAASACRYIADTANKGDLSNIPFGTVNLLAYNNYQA
# Method: For one-step RT-PCR, AAPV (SEQ ID NO:1) is effective. To determine the concentration of AAPV (SEQ ID NO:1) for inhibition of proteinase K in the lysis solution, 50 uL lysis solution was mixed with 5 uL of stop solution with varying amounts of AAPV (SEQ ID NO:1) (11 mM Tris, 44 mM EGTA, […] AAPV (SEQ ID NO:1)) and incubated for 10 min. RNase A (15 ug) was added to each sample and the samples were held for 10 min at room temperature. The reaction mixture was heated for 30 min at 95° C. and analyzed using a Protein 50 Bioanalyzer chip (2100 Bioanalyzer, Agilent, Santa Clara, Calif.). The Bioanalyzer protein gel data are provided by FIG. 7 in which the lower marker is at about 3.5 kDa; the next higher prominent bands are system peaks at about 4.0-4.5 kDa; intact RNase A is at about 20 kDa; and proteinase K is at about 35 kDa. Lanes are labeled as follows: (L) Ladder, (1) RNase Only, (2) PK Only, (3)-(8) AAPV (SEQ ID NO:1) at 1 mM (3), 0.75 mM (4), 0.5 mM (5), 0.25 mM (6), 0.125 mM (7), and 0 mM (8).
# [5] = molecular target: T1, AMPLITAQ GOLD® DNA polymerase (Thermus aquaticus, UniProt P19821); assay: Effect of surfactants on qPCR (TAQMAN Universal PCR Master Mix, PPIA assay); type: biochemical; conditions: even at 1% (0.1% final in PCR)
# T1 construct: purchased Applied Biosystems 4304437
# T1 sequence (P19821 whole entry): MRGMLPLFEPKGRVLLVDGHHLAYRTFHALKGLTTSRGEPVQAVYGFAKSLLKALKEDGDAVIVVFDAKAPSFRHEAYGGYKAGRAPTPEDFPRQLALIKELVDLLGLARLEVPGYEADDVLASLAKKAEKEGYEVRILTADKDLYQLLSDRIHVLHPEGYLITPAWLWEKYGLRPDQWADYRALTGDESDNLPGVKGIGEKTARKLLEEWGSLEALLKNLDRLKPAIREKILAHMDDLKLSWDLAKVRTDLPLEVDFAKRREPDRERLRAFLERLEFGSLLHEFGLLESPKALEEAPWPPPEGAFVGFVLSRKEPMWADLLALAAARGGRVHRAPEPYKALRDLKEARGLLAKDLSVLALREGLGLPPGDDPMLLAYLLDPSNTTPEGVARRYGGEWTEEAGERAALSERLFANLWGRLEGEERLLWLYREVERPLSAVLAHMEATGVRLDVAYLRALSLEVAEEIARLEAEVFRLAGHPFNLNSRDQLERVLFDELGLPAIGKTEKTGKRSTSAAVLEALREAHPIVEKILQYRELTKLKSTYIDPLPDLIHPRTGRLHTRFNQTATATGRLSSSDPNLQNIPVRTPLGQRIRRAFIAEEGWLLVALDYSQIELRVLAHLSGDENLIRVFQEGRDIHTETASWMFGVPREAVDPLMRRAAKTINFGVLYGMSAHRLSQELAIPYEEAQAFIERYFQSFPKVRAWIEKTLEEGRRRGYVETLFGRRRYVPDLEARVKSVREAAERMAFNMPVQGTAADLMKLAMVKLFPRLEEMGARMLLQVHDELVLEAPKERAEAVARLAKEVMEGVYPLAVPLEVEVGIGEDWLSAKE
# Method: The effects of surfactants on PCR reactions were then studied. qPCR (20 uL) reactions with 4 ng Human Universal reference liver cDNA (Catalog No. 780622; […]®, La Jolla, Calif.) were performed by adding 2 uL of surfactant resuspended in 10 mM Tris pH 7.5 at concentrations of 0.0%, 0.01%, 0.03%, 0.1%, 0.3%, and 1%. qPCR reactions were carried out using the TAQMAN® Universal PCR Master Mix (Applied Biosystems Catalog No. 4304437), and qRT-PCR reactions were carried out using the TAQMAN® One-Step RT-PCR Master Mix (Applied Biosystems Catalog No. 4309169). TAQMAN® gene expression assays were used to determine expressions levels of genes PPIA (peptidylprolyl isomerase A (cyclophilin A)) and B2M (β-2-microglobulin).
# ROX™ background fluorescence was not affected.
# [6] = concentrations up to 2 mM in the stopped mixture (up to 400 uM in an RT reaction)
# Sequence of proteinase K (PK) (P06873 106-384): as the sequence (P06873 106-384) above
molecule,measurement,setting,value
"NCCc1ccc(S(=O)(=O)F)cc1 [AEBSF, 4-(2-aminoethyl) benzenesulfonyl fluoride]",inhibition of PK at room temperature,proteinase K (PK),did not show inhibition
"O=C(O)CN(CCN(CC(=O)O)CC(=O)O)CC(=O)O [EDTA, ethylenediamine tetraacetic acid]",effect on DNase I activity (DNaseALERT substrate fluorescence),DNase I [1],inhibitory effect
"O=C(O)CN(CCOCCOCCN(CC(=O)O)CC(=O)O)CC(=O)O [EGTA, ethylene glycol tetraacetic acid]",concentration inhibiting DNase I,DNase I [2],≥ 4 mM
"O=S(=O)(F)Cc1ccccc1 [PMSF, phenylmethylsulfonylfluoride]",RT-PCR inhibition (two-step),[3]; [6],Minimal RT-PCR inhibition
same,compatibility with 1-step RT-PCR,[4],showed RT-PCR inhibition
N=C(N)c1ccccc1 [benzamidine],inhibition of PK at room temperature,proteinase K (PK),did not show inhibition
"CC(=O)N[C@@H](CC(C)C)C(=O)N[C@@H](CC(C)C)C(=O)N[C@H](C=O)CCCNC(=N)N [leupeptin, Ac-Leu-Leu-Arg-CHO]",inhibition of PK at room temperature,proteinase K (PK),capable of inhibiting PK
N-tosyl-L-lysine-chloromethyl ketone [TLCK],inhibition of PK at room temperature,proteinase K (PK),did not show inhibition
TWEEN™ 20,effectiveness at lysing cells,HeLa cells,not effective
TWEEN™ 40,effectiveness at lysing cells,HeLa cells,not effective
TWEEN™ 80,effectiveness at lysing cells,HeLa cells,not effective
aprotinin,inhibition of PK at room temperature,proteinase K (PK),capable of inhibiting PK
same,RT-PCR inhibition (two-step),[3]; all concentrations tested,inhibitory
same,compatibility with 1-step RT-PCR,[4],showed RT-PCR inhibition
methoxysuccinyl-Ala-Ala-Pro-Ala-chloromethyl ketone (MeOSuc-AAPA-CH2Cl),inhibition of PK at room temperature,proteinase K (PK),did not show inhibition
methoxysuccinyl-Ala-Ala-Pro-Val-chloromethyl ketone (MeOSuc-AAPV-CH2Cl),inhibition of PK at room temperature,proteinase K (PK),capable of inhibiting PK
same,RT-PCR inhibition (two-step),[3]; [6],Minimal RT-PCR inhibition
same,lowest concentration inhibiting PK,proteinase K,≥ 0.25 mM
same,lowest concentration inhibiting PK,proteinase K; listed as Methoxysuccinyl-AAPV-chloromethyl ketone,≥ 0.75 mM
same,compatibility with 1-step RT-PCR,[4],compatible
octylphenol ethoxylate having an average of 7.5 ethoxylate groups [TRITON X-114™],effect on qPCR (Ct),[5],no effect
octylphenol ethoxylate having an average of 9.5 ethoxylate groups [TRITON X-100™],concentrations effective for lysis,"HeLa cells; 0.01% to 5% surfactant tested, 1% TRITON X-100 as full lysis control",≥ 0.05%
"N-acetyl-Eglin C: Catalog No. E7888, Sigma-Aldrich; inhibitor of chymotrypsin, subtilisin, leukocyte elastase and cathepsin G (protein) Ac-TEFGSELKSFPEVVGKTVDQAREYFTLHYPQYDVYFLPEGSPVTLDLRYNRVRVFYNPGTNVVNHVPHVG",inhibition of PK at room temperature,proteinase K (PK),did not show inhibition
